Measurements as given in ChEMBL document CHEMBL2150859, “Design, synthesis, and evaluation of 3,5-disubstituted 7-azaindoles as Trk inhibitors with anticancer and antiangiogenic activities” (J Med Chem, 2012).
Active and inactive are the calls of the source. No cut-off for these calls is given here.

Key:
[1] = target: Serine/threonine-protein kinase PAK 1 (Homo sapiens) (UniProt Q13153); assay: Binding affinity to PAK1 at 1 uM by high throughput binding assay relative to control
[2] = target: Mitogen-activated protein kinase 14 (Homo sapiens) (UniProt Q16539); assay: Binding affinity to P38alpha at 1 uM by high throughput binding assay relative to control
[3] = target: Hepatocyte growth factor receptor (Homo sapiens) (UniProt P08581); assay: Binding affinity to MET at 1 uM by high throughput binding assay relative to control
[4] = target: Dual specificity mitogen-activated protein kinase kinase 2 (Homo sapiens) (UniProt P36507); assay: Binding affinity to MEK2 at 1 uM by high throughput binding assay relative to control
[5] = target: Dual specificity mitogen-activated protein kinase kinase 1 (Homo sapiens) (UniProt Q02750); assay: Binding affinity to MEK1 at 1 uM by high throughput binding assay relative to control
[6] = target: Tyrosine-protein kinase JAK2 (Homo sapiens) (UniProt O60674); assay: Binding affinity to JAK2 at 1 uM by high throughput binding assay relative to control
[7] = target: T1, Mast/stem cell growth factor receptor Kit (Homo sapiens, UniProt P10721); assay: Binding affinity to KIT at 1 uM by high throughput binding assay relative to control
[8] = target: Glycogen synthase kinase-3 beta (Homo sapiens) (UniProt P49841); assay: Binding affinity to GSK3beta at 1 uM by high throughput binding assay relative to control
[9] = target: Focal adhesion kinase 1 (Homo sapiens) (UniProt Q05397); assay: Binding affinity to FAK at 1 uM by high throughput binding assay relative to control
[10] = target: Fibroblast growth factor receptor 2 (Homo sapiens) (UniProt P21802); assay: Binding affinity to FGFR2 at 1 uM by high throughput binding assay relative to control
[11] = target: Mitogen-activated protein kinase 3 (Homo sapiens) (UniProt P27361); assay: Binding affinity to ERK1 at 1 uM by high throughput binding assay relative to control
[12] = target: Epidermal growth factor receptor (Homo sapiens) (UniProt P00533); assay: Binding affinity to EGFR at 1 uM by high throughput binding assay relative to control
[13] = target: Cyclin-dependent kinase 19 (Homo sapiens) (UniProt Q9BWU1); assay: Binding affinity to CDK11 at 1 uM by high throughput binding assay relative to control
[14] = target: Serine/threonine-protein kinase B-raf (Homo sapiens) (UniProt P15056); assay: Binding affinity to BRAF at 1 uM by high throughput binding assay relative to control
[15] = target: Aurora kinase B (Homo sapiens) (UniProt Q96GD4); assay: Binding affinity to AURKB at 1 uM by high throughput binding assay relative to control
[16] = target: RAC-beta serine/threonine-protein kinase (Homo sapiens) (UniProt P31751); assay: Binding affinity to AKT2 at 1 uM by high throughput binding assay relative to control
[17] = target: Aurora kinase A (Homo sapiens) (UniProt O14965); assay: Binding affinity to AURKA at 1 uM by high throughput binding assay relative to control
[18] = target: RAC-alpha serine/threonine-protein kinase (Homo sapiens) (UniProt P31749); assay: Binding affinity to AKT1 at 1 uM by high throughput binding assay relative to control
[19] = target: Tyrosine-protein kinase ABL1 (Homo sapiens) (UniProt P00519); assay: Binding affinity to ABL1 at 1 uM by high throughput binding assay relative to control
[20] = target: T2, High affinity nerve growth factor receptor (Homo sapiens, UniProt P04629); assay: Inhibition of TRKA assessed as [gamma33P]ATP incorporation into substrate
MCF7 [21] = assay: Induction of apoptosis in human MCF7 cells assessed as increase in cleaved caspase-3 expression at 10 uM after 24 hrs by immunofluorescence staining method; type: functional, cell-based
MCF7 [22] = assay: Induction of apoptosis in human MCF7 cells assessed as DNA strand breaks at 10 uM after 24 hrs by TUNEL assay; type: functional, cell-based
MCF7 [23] = assay: Induction of apoptosis in human MCF7 cells assessed as increase in cytochrome C expression at 10 uM after 24 hrs by immunofluorescence staining method; type: functional, cell-based
MCF7 [24] = assay: Induction of apoptosis in human MCF7 cells assessed as increase in Bax expression at 10 uM after 24 hrs by immunofluorescence staining method; type: functional, cell-based
HUVEC [25] = assay: Antiangiogenic activity against HUVEC assessed as inhibition of VEGF-induced tube formation after 10 hrs by phase-contrast microscopic analysis; type: functional, cell-based; details: Homo sapiens
HUVEC [26] = assay: Antiangiogenic activity in HUVEC assessed as inhibition of wound-induced cell migration after 16 hrs; type: functional, cell-based; details: Homo sapiens
[27] = target: Hypoxia-inducible factor 1-alpha (Homo sapiens) (UniProt Q16665); assay: Inhibition of HIF1alpha-mediated VEGF production in human MCF7 cells under hypoxic condition at 0.1 to 10 uM after 6 hrs; type: cell-based
MCF7 [28] = assay: Induction of apoptosis in human MCF7 cells assessed as decrease in Bcl-2 expression at 10 uM after 24 hrs by immunofluorescence staining method; type: functional, cell-based
MCF7 [29] = assay: Inhibition of hypoxia-induced HIF1alpha expression in human MCF7 cells after 6 hrs; type: functional, cell-based
MCF7 [30] = assay: Induction of apoptosis in human MCF7 cells assessed as nuclear fragmentation at 10 uM after 24 hrs by DAPI staining; type: functional, cell-based
MCF7 [31] = assay: Induction of apoptosis in human MCF7 cells assessed as nuclear condensation at 10 uM after 24 hrs by DAPI staining; type: functional, cell-based
[32] = target: Platelet-derived growth factor receptor alpha (Homo sapiens) (UniProt P16234); assay: Binding affinity to PDGFRalpha at 1 uM by high throughput binding assay relative to control
[33] = target: 3-phosphoinositide-dependent protein kinase 1 (Homo sapiens) (UniProt O15530); assay: Binding affinity to PDPK1 at 1 uM by high throughput binding assay relative to control
[34] = target: cAMP-dependent protein kinase catalytic subunit alpha (Homo sapiens) (UniProt P17612); assay: Binding affinity to PKACalpha at 1 uM by high throughput binding assay relative to control
[35] = target: Serine/threonine-protein kinase PLK1 (Homo sapiens) (UniProt P53350); assay: Binding affinity to PLK1 at 1 uM by high throughput binding assay relative to control
[36] = target: Phosphatidylinositol 4,5-bisphosphate 3-kinase catalytic subunit alpha isoform (Homo sapiens, UniProt P42336); assay: Binding affinity to PI3KCA at 1 uM by high throughput binding assay relative to control
[37] = target: Serine/threonine-protein kinase pim-1 (Homo sapiens) (UniProt P11309); assay: Binding affinity to PIM1 at 1 uM by high throughput binding assay relative to control
[38] = target: Serine/threonine-protein kinase PLK3 (Homo sapiens) (UniProt Q9H4B4); assay: Binding affinity to PLK3 at 1 uM by high throughput binding assay relative to control
[39] = target: Rho-associated protein kinase 2 (Homo sapiens) (UniProt O75116); assay: Binding affinity to ROCK2 at 1 uM by high throughput binding assay relative to control
[40] = target: BDNF/NT-3 growth factors receptor (Homo sapiens) (UniProt Q16620); assay: Binding affinity to TRKB at 1 uM by high throughput binding assay relative to control
SK-BR-3 = assay: Cytotoxicity against human SKBR3 cells after 48 hrs by MTT assay; type: functional, cell-based
MCF7 [41] = assay: Cytotoxicity against human MCF7 cells assessed as growth inhibition at 0.1 to 50 uM after 48 hrs by MTT assay; type: functional
[42] = target: T2, High affinity nerve growth factor receptor; details: MCF7, 0.1 to 10 uM
Target sequence in this assay (P04629 33-796 limits assumed): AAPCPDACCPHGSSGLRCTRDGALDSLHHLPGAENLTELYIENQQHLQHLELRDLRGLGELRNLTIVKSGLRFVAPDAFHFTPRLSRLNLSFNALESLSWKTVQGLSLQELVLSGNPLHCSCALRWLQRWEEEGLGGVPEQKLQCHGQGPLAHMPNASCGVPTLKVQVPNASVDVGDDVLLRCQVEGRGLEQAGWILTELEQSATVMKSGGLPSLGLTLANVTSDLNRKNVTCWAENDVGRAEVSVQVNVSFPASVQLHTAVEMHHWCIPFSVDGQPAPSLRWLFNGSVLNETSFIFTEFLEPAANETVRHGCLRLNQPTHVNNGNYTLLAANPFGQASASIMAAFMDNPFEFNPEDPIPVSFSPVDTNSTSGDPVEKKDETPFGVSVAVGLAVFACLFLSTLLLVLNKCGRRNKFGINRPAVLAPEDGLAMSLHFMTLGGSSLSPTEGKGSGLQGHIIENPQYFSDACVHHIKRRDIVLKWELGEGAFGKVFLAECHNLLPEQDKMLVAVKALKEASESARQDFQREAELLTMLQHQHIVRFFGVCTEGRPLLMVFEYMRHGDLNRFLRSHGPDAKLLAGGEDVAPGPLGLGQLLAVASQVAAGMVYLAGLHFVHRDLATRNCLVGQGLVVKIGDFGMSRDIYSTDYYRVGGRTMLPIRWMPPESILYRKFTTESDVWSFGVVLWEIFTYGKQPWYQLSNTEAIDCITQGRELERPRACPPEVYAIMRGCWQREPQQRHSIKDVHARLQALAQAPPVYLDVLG
Description: Inhibition of TRKA phosphorylation in human MCF7 cells at 0.1 to 10 uM by Western blot analysis

[43] = target: T2, High affinity nerve growth factor receptor; details: MCF7, 0.1 to 10 uM; remark: listed apart in the source
Target sequence in this assay (P04629 33-796 limits assumed): as above
Description: Inhibition of TRKA-induced AKT phosphorylation in human MCF7 cells at 0.1 to 10 uM by Western blot analysis

MCF7 [44] = assay: cells; details: Homo sapiens, MCF7, 48 h
Description: (§1) Cytotoxicity against human MCF7 cells after 48 hrs by MTT assay

[45] = target: T1, Mast/stem cell growth factor receptor Kit; assay: Inhibition of KIT by radiometric kinase assay
MCF7 [46] = details: Homo sapiens
Description: as §1

T1 sequence (P10721 whole entry): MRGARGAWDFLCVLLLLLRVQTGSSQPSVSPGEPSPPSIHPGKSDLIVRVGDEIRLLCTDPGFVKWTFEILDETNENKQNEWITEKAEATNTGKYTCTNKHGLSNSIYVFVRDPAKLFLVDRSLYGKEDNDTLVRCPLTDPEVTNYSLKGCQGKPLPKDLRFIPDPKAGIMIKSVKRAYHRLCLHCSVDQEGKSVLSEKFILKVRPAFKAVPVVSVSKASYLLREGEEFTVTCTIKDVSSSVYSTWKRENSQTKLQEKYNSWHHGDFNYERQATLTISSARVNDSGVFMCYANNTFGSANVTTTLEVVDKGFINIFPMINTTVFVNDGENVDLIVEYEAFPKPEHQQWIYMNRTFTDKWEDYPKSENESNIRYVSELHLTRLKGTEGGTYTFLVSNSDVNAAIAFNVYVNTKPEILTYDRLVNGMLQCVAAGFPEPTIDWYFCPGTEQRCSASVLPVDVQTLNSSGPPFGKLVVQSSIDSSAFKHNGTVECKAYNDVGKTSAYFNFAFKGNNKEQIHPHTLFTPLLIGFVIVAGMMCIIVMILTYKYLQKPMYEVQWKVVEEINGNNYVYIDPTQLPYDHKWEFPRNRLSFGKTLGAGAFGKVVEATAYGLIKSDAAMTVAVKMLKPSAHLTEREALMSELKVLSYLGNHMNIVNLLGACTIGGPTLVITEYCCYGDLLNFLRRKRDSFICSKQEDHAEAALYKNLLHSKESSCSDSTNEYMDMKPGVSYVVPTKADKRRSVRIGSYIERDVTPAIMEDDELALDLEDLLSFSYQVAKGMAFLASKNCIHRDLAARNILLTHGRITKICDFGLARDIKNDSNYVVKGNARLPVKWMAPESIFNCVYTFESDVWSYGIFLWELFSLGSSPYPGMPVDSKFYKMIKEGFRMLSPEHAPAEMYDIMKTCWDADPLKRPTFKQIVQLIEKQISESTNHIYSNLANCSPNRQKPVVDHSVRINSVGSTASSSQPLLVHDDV
Chain of Dual specificity mitogen-activated protein kinase kinase 1 (Homo sapiens) (Q02750 whole entry): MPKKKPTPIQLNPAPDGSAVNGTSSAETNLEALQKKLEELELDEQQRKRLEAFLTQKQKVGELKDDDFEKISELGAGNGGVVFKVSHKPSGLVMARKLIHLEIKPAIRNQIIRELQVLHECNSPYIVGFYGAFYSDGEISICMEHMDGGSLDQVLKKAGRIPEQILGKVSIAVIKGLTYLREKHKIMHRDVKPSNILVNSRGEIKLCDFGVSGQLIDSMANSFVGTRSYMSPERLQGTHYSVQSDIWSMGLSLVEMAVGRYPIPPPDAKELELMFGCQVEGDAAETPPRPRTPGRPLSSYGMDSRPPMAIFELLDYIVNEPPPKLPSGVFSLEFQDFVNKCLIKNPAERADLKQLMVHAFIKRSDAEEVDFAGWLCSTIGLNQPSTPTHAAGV
Chain of Tyrosine-protein kinase ABL1 (Homo sapiens) (P00519 whole entry): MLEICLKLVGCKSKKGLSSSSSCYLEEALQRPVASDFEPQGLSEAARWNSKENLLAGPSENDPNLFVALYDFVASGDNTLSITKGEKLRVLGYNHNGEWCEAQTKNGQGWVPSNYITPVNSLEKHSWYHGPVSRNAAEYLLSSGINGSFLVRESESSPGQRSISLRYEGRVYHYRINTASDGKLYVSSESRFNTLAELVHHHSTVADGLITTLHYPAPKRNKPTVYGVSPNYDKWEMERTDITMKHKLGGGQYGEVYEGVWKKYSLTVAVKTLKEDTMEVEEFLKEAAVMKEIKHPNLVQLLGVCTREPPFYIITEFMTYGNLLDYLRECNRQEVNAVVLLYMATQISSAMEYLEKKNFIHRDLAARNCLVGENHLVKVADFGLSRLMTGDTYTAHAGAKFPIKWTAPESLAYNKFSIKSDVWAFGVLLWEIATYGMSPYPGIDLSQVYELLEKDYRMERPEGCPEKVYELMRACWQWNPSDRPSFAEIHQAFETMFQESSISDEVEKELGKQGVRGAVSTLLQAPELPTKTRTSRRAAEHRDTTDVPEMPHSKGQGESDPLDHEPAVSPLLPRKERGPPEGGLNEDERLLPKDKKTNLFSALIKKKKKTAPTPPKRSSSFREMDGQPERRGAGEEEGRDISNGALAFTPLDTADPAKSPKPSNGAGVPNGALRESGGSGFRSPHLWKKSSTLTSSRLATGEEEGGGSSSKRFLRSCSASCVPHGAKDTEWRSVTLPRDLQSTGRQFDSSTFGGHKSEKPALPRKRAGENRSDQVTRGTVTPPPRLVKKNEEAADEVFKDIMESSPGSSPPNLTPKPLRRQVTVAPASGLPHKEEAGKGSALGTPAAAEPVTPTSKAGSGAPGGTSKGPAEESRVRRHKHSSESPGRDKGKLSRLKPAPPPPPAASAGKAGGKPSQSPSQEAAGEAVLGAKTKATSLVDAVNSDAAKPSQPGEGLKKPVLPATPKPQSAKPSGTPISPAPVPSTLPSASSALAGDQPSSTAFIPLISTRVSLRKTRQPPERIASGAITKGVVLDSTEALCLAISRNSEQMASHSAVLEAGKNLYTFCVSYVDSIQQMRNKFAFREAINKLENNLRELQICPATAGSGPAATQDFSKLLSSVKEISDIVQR
Chain of 3-phosphoinositide-dependent protein kinase 1 (Homo sapiens) (O15530 whole entry): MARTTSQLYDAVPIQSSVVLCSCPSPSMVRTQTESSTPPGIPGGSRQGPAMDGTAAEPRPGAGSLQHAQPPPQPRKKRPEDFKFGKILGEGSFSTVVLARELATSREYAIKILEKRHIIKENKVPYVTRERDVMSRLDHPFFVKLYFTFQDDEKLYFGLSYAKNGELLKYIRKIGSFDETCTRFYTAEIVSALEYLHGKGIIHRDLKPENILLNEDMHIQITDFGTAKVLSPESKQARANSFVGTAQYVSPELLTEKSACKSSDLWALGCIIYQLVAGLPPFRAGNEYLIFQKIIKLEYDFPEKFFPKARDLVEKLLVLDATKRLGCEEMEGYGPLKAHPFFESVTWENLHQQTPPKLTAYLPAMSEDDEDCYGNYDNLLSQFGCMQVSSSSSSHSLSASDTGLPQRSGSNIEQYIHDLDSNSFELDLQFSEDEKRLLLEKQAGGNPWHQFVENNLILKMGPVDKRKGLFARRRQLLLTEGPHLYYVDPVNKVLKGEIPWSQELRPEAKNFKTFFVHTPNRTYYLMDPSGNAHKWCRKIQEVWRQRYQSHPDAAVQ
Chain of Dual specificity mitogen-activated protein kinase kinase 2 (Homo sapiens) (P36507 whole entry): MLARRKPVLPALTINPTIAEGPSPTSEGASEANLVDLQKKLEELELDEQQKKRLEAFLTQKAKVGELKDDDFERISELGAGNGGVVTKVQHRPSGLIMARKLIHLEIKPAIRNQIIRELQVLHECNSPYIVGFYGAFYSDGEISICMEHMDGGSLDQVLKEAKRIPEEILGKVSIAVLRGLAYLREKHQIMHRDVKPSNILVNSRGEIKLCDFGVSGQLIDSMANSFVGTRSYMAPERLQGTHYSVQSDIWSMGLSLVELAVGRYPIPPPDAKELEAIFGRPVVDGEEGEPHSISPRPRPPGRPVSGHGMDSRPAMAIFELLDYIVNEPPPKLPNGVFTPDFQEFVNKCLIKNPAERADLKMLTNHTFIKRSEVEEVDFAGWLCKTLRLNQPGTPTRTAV
Chain of Mitogen-activated protein kinase 14 (Homo sapiens) (Q16539 whole entry): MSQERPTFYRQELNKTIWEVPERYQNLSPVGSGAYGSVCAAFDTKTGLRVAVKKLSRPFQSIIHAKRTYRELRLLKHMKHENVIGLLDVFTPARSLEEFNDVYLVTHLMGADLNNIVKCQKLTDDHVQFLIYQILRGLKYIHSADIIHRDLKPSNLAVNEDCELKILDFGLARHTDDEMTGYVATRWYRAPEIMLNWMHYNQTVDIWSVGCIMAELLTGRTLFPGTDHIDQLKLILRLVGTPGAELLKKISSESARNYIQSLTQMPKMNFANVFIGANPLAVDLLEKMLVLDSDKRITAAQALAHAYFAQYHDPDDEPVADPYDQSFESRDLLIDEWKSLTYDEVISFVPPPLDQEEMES
Chain of Glycogen synthase kinase-3 beta (Homo sapiens) (P49841 whole entry, looked up): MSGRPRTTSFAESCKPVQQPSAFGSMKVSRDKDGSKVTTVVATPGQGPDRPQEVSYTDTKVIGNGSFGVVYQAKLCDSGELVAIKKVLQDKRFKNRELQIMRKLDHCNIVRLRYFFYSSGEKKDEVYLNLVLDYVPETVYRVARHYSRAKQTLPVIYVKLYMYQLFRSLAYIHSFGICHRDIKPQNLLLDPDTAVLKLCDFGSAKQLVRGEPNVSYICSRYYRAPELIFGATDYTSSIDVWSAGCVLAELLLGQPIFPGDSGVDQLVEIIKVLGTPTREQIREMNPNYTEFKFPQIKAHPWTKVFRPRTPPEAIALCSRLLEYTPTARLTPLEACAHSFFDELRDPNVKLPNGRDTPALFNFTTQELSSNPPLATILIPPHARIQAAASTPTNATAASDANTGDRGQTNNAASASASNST

Q: Which results are given for Nc1cc(NS(=O)(=O)c2cccc(C(F)(F)F)c2)cc(-c2cnc3[nH]cc(-c4ccncc4)c3c2)c1?
A: Activity [1]: 79%; Activity [2]: 100%; Activity [3]: 96%; Activity [4]: 100%; Activity [5]: 100%; Activity [6]: 34%; Activity [7]: 3%; Activity [8]: 81%; Activity [9]: 88%; Activity [10]: 61%; Activity [11]: 100%; Activity [12]: 100%; Activity [13]: 26%; Activity [14]: 100%; Activity [15]: 85%; Activity [16]: 100%; Activity [17]: 100%; Activity [18]: 94%; Activity [19]: 81%; IC50 [20]: 1.67 nM; Activity (MCF7 [21]): Active; Activity (MCF7 [22]): Active; Activity (MCF7 [23]): Active; Activity (MCF7 [24]): Active; inhibition (HUVEC [25]): Dose-dependent effect; inhibition (HUVEC [26]): Dose-dependent effect; inhibition [27]: Active; Activity (MCF7 [28]): Active; inhibition (MCF7 [29]): Dose-dependent effect; Activity (MCF7 [30]): Active; Activity (MCF7 [31]): Active; Activity [32]: 69%; Activity [33]: 90%; Activity [34]: 88%; Activity [35]: 100%; Activity [36]: 64%; Activity [37]: 97%; Activity [38]: 75%; Activity [39]: 50%; Activity [40]: 1.2%; Activity (SK-BR-3): Dose-dependent effect; growth inhibition (GI) (MCF7 [41]): 40%; inhibition [42]: Active; inhibition [43]: Active; IC50 (MCF7 [44]): 4200 nM; IC50 [45]: 145 nM; Activity (MCF7 [46]): Dose-dependent effect
